Reference: PMC8142021 (International Journal for Parasitology: Drugs and Drug …, 2021)
Values after ≈ are worked out from the molar mass of the structure shown. “Also recorded” adds a separate entry of the source.

Legend:
[1] = ref Vandermeulen et al., 2006; cited from earlier work
[2] = Determination of aqueous solubility; format: physicochemical; settings: phosphate buffer, pH 7, aqueous buffer, thermodynamic from solid
[3] = test system: L. infantum axenic amastigotes; assay: Axenic amastigote assay; format: cell-based, Leishmania infantum
[4] = test system: L. infantum intracellular amastigotes in U937 macrophages; assay: In vitro macrophage infection and intracellular amastigote assay; format: cell-based, Leishmania infantum; settings: infected U937 macrophages, 20 μM

For `C[C@@H]1[C@H](O)[C@@H](C)/C=C/C=C/C=C/C=C/C=C/C=C/C=C/[C@H](O[C@@H]2O[C@H](C)[C@@H](O)[C@H](N)[C@@H]2O)C[C@@H]2O[C@](O)(C[C@@H](O)C[C@@H](O)[C@H](O)CC[C@@H](O)C[C@@H](O)CC(=O)O[C@H]1C)C[C@H](O)[C@H]2C(=O)O` [Amphotericin B], the aqueous solubility [1] is given as 1 µg/mL (≈ 1.08 µM).
Work on `COc1cc(N)c(NS(=O)(=O)c2ccc(N(C)C)cc2)cc1OC` [Compound 35, N-(2-amino-4,5-dimethoxyphenyl)-4-(dimethylamino)benzenesulfonamide] yielded a solubility thermodynamic at 72 h [2] of 118 µg/mL (≈ 336 µM).
For `COc1ccc(NS(=O)(=O)c2ccc(N)cc2)cc1OC` [Compound 26, 4-Amino-N-(3,4-dimethoxyphenyl)benzenesulfonamide], the solubility thermodynamic at 72 h [2] was 55 µg/mL (≈ 178 µM).
With `COc1ccc(S(=O)(=O)Nc2cc(C#N)ccc2OS(=O)(=O)c2ccc(OC)cc2)cc1` [Compound 276B, 4-cyano-2-((4-methoxyphenyl)sulfonamido)phenyl 4-methoxybenzenesulfonate] the “Selectivity index Axenic amastigotes” value ([3]; IC50 cellular cytotoxicity (HeLa)/IC50 antileishmanial activity) was 11.5 and the “activity against intracellular amastigotes (in words)” value (shortened to “activity”) [4] was “active”.
In the case of `COc1ccc(S(=O)(=O)Nc2cc(OC)c(NC(=O)CCl)cc2OC)cc1` [Compound 129, 2-Chloro-N-(2,5-dimethoxy-4-((4-methoxyphenyl)sulfonamido)phenyl)acetamide], the “Leishmania infantum Axenic amastigotes IC50 (μM)” value ([3]; 48 h treatment, XTT) is reported as “sub-micromolar” and the “activity” value [4] is reported as “active; also recorded: infection clearly interrupted”.
With `COc1ccc(S(=O)(=O)N(Cc2ccccc2)c2ccc(OC)nc2)cc1` [Compound 279, N-benzyl-4-methoxy-N-(6-methoxypyridin-3-yl)benzenesulfonamide] the “activity” value [4] was “inactive”.
Work on `COc1ccc(S(=O)(=O)Nc2c(C(=O)Nc3c(C(=O)O)cc(OC)c(OC)c3OC)cc(OC)c(OC)c2OC)cc1` [Compound 63B, 3,4,5-trimethoxy-2-(3,4,5-trimethoxy-2-((4-methoxyphenyl)sulfonamido)benzamido)benzoic acid] yielded a solubility thermodynamic at 72 h [2] of 1890 µg/mL (≈ 3110 µM).
